Patent US20250230151A1, “COMPOUNDS FOR CANCERS DRIVEN BY BRAF MUTATION” (THE BOARD OF TRUSTEES OF THE UNIVERSITY OF ILLINOIS, priority 2021, published 2025)
Each block holds one compound with its values, some of them ahead of it.

Legend:
A375 cells = assay: 72-hour cell viability assay (Alamar Blue), A375; assay type: cell-based, human; conditions: for IC50: 72-hour incubation, Alamar Blue, V600E BRAF; for Emax: A-375, A375, 72-hour incubation
Procedure: Cell Culture and reagents. All cell lines were grown in a 37° C., 5% CO2, humidified environment, in media containing 1% penicillin/streptomycin. Cell culture conditions are as follows: MDCK cells transfected with MDR1 (or ABCB1) were obtained from the Netherlands Cancer Institute (Amsterdam, The Netherlands) and maintained in DMEM with 10% fetal bovine serum (FBS, Gemini). Traditional cell lines A375, CHL-1, B16F10, and U118MG were grown in DMEM with 10% FBS, SK-MEL-28, U87 and T98G in EMEM with 10% FBS, AM-38 in EMEM with 20% HI-FBS (Gibco), HT29 in McCoy's 5A with 10% FBS, HCT116 in RPMI with 10% FBS. Compounds were dissolved in DMSO (1% final concentration, Sigma-Aldrich) for cell culture studies.
Cell viability assays. Cells were harvested, seeded in a 96-well plate and allowed to adhere overnight. Compound was added to each well in DMSO (1% final concentration). Cells were incubated for 72 hours before viability was assessed by the Alamar Blue Assay. Raptinal ([…]) was used as a dead control.

P-gp = biological target: T1, P-gp (Homo sapiens, UniProt P08183); assay: MDR1-MDCK P-gp transwell bidirectional transport assay; assay type: in vitro ADME; conditions: 10 μM, 90 min; for Papp A→B at 90 min, 10 µM / Papp B→A at 90 min, 10 µM / efflux ratio at 90 min, 10 µM: dog, MDCK-MDR1, MDR1-MDCK; for efflux ratio at 90 min, 10 µM: read-out: ER (efflux ratio) (converted); for Papp A-B / Papp B-A: MDR1-MDCK
T1 construct: host or cells: MDCK (MDR1-MDCK)
Procedure: A novel compound collection composed of complex and diverse compounds derived from natural products, termed “Complexity-to-Diversity Collection” was employed. […] The CtD compounds were evaluated by the efflux pump and their permeability using the P-gp transwell assay using adapted and optimized known protocols. Compound transport across epithelial cells overexpressing P-gp from basolateral-to-apical and apical-to-basolateral directions were quantified to calculate permeability and efflux ratio.
P-gp transwell bidirectional transport assays. Unless noted otherwise, the transport assay was performed in triplicate in batches of 16 or 24 test compounds, with each batch containing quinidine as a substrate control and propranolol as a non-substrate control. MDR1-MDCK cells were plated at a density of 300,000 cells/cm^2 onto 96-well Falcon™ Multiwell Insert System with 1 µm pore polycarbonate filters with angled-bottom receiver plates (Coming) and were fed with the cell growth medium on day 2.
The donor solution was prepared by adding 1 mM DMSO stocks of compounds to make the final concentration […], and the receiver solution was prepared with equivalent volume of DMSO to make 1% DMSO in final assay chamber volumes.
After 80-96 hours since seeding, the growth media on both sides was aspirated. To the transwell plate (apical side), 50 μL of receiver and donor solutions prepared on a 96-well plate were added, and it was placed on top of a separate angled-bottom 96-well plate (basolateral side) containing 260 μL of receiver and donor solutions.
Following 90 minutes of incubation at 37° C. with shaking at 90 rpm, 20 μL aliquot of samples were taken from both the donor and receiver chambers, and the apical and basolateral sides. Aliquots of 4 test compounds were pooled for each category: apical-donor, apical-receiver, basolateral-donor, basolateral-receiver. To measure CO and mass balance, initial donor samples from both apical and basolateral side were set aside from the assay plate. Acetonitrile twice the volume of pooled samples was added and mixed thoroughly, and precipitated proteins were removed by centrifugation at 20,000 r.c.f for 10 minutes.
To ascertain the MDCK monolayer integrity, the solution on apical side contained 100 µM Lucifer Yellow (Millipore-Sigma). After 90 minutes of compound transport, Lucifer Yellow concentration in the basal well was measured using SpectraMax M3 (Molecular Devices) set to an excitation wavelength of 430 nm and an emission wavelength of 540 nm.
Samples were analyzed with the 5500 QTRAP LC/MS/MS system (AB Sciex) with a 1200 series HPLC system (Agilent Technologies) including a degasser, an autosampler, and a binary pump. The liquid chromatography separation was performed on an Agilent SB-Aq column (4.6×50 mm, 5 μm) (Agilent Technologies) with mobile phase A (0.1% formic acid in water) and mobile phase B (0.1% formic acid in acetonitrile). The flow rate was 0.3 ml min^−1. The linear gradient was optimized for each compound. The autosampler was set at 5° C. The injection volume was 15 μL. Mass spectra were acquired with both positive electrospray ionization at the ion spray voltage of 5,500 V and negative electrospray ionization at the ion spray voltage of −4,500 V. The source temperature was 450° C. The curtain gas, ion source gas 1, and ion source gas 2 were 33, 50 and 65, respectively. Multiple reaction monitoring was used to quantify metabolites.
Efflux data calculations.

T1 sequence (P08183 whole entry): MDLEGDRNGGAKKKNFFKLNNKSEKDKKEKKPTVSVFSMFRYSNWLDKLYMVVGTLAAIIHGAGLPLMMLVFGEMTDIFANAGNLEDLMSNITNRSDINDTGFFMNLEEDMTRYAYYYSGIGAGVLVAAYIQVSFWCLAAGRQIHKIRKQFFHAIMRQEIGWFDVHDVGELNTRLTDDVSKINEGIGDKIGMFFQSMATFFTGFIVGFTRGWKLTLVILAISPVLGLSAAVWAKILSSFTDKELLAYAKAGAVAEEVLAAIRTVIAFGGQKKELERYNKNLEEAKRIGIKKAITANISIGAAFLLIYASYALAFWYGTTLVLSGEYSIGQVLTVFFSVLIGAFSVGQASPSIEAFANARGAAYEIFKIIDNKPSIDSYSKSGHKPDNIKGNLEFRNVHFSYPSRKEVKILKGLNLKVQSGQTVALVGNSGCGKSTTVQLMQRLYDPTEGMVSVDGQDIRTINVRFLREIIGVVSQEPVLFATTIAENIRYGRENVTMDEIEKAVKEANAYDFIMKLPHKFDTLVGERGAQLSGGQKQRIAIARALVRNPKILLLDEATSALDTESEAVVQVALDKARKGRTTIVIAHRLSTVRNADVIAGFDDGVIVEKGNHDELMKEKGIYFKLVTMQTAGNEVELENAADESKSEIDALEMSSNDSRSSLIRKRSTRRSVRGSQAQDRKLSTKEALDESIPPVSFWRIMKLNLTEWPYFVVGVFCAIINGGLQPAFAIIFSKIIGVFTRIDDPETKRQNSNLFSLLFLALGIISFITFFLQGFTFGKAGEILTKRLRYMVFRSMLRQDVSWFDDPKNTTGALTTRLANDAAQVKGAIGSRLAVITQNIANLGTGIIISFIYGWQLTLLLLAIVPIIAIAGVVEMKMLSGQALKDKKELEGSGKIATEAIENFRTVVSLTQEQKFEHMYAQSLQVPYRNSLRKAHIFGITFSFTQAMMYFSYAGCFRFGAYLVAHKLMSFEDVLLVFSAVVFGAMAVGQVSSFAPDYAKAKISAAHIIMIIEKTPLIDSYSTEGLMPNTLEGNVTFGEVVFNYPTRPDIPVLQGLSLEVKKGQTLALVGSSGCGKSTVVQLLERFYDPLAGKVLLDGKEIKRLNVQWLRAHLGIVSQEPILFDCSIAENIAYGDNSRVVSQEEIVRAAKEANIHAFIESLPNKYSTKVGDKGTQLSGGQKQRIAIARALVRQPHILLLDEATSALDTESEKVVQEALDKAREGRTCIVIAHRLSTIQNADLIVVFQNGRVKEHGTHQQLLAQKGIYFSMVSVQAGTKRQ

Structure (SMILES): CC(C)(C)c1nc(-c2cccc(NS(=O)(=O)c3c(F)cccc3F)c2F)c(-c2ccnc(N[C@H]3CC[C@@H](C(=O)O)CC3)n2)s1 [6-85, (1s,4s)-4-((4-(2-(tert-butyl)-4-(3-((2,6-difluorophenyl)sulfonamido)-2-fluorophenyl)thiazol-5-yl)pyrimidin-2-yl)amino)cyclohexane-1-carboxylic acid]
IC50 (A375 cells; Homo sapiens, A-375, 72 h): 0.474 ± 0.0118 µM
Papp A→B at 90 min, 10 µM (P-gp): 0.709 ± 0.045 ×10⁻⁶ cm/s
Papp B→A at 90 min, 10 µM (P-gp): 2.26 ± 0.32 ×10⁻⁶ cm/s
efflux ratio at 90 min, 10 µM (P-gp): 3.22 ± 0.54

Structure (SMILES): CC(C)(C)c1nc(-c2cccc(NS(=O)(=O)c3c(F)cccc3F)c2F)c(-c2ccnc(NCCCCC(=O)O)n2)s1 [6-83, 5-((4-(2-(tert-butyl)-4-(3-((2,6-difluorophenyl)sulfonamido)-2-fluorophenyl)thiazol-5-yl)pyrimidin-2-yl)amino)pentanoic acid]
IC50 (A375 cells): 0.115 ± 0.00985 µM
IC50 (A375 cells; Homo sapiens, A-375, 72 h): 0.115 µM
Emax (A375 cells; Homo sapiens): 65%
Papp A-B (P-gp): 1.089 ± 0.097 ×10⁻⁶ cm/s
Papp B-A (P-gp): 2.165 ± 0.371 ×10⁻⁶ cm/s
Papp A→B at 90 min, 10 µM (P-gp): 1.09 ± 0.097 ×10⁻⁶ cm/s
Papp B→A at 90 min, 10 µM (P-gp): 2.17 ± 0.371 ×10⁻⁶ cm/s
efflux ratio at 90 min, 10 µM (P-gp): 1.96 ± 0.22

Structure (SMILES): C=C[C@H]1C[N@@]2CC[C@H]1C[C@@H]2[C@@H](O)c1ccnc2ccc(OC)cc12 [Quinidine, reference compound]
efflux ratio at 90 min, 10 µM (P-gp): 8.09

Structure (SMILES): CC(C)(C)c1nc(-c2cccc(NS(=O)(=O)c3c(F)cccc3F)c2F)c(-c2ccnc(N[C@H]3CC[C@H](C(=O)O)CC3)n2)s1 [6-89, (1r,4r)-4-((4-(2-(tert-butyl)-4-(3-((2,6-difluorophenyl)sulfonamido)-2-fluorophenyl)thiazol-5-yl)pyrimidin-2-yl)amino)cyclohexane-1-carboxylic acid]
IC50 (A375 cells): 0.166 ± 0.00409 µM
IC50 (A375 cells; Homo sapiens, A-375, 72 h): 0.166 ± 0.00409 µM
Papp A-B (P-gp): 2.237 ± 0.126 ×10⁻⁶ cm/s
Papp B-A (P-gp): 1.251 ± 0.436 ×10⁻⁶ cm/s
Papp A→B at 90 min, 10 µM (P-gp): 2.24 ± 0.126 ×10⁻⁶ cm/s
Papp B→A at 90 min, 10 µM (P-gp): 1.25 ± 0.436 ×10⁻⁶ cm/s
efflux ratio at 90 min, 10 µM (P-gp): 0.56 ± 0.18

Structure (SMILES): CC(C)(C)c1nc(-c2cccc(NS(=O)(=O)c3c(F)cccc3F)c2F)c(-c2ccnc(CCC(=O)O)n2)s1 [6-97, 3-(4-(2-(tert-butyl)-4-(3-((2,6-difluorophenyl)sulfonamido)-2-fluorophenyl)thiazol-5-yl)pyrimidin-2-yl)propanoic acid]
IC50 (A375 cells; Homo sapiens, A-375, 72 h): > 1 µM
Papp A→B at 90 min, 10 µM (P-gp): 0.868 ± 0.021 ×10⁻⁶ cm/s
Papp B→A at 90 min, 10 µM (P-gp): 0.741 ± 0.156 ×10⁻⁶ cm/s
efflux ratio at 90 min, 10 µM (P-gp): 0.86 ± 0.19

Structure (SMILES): CC(C)(C)c1nc(-c2cccc(NS(=O)(=O)c3c(F)cccc3F)c2F)c(-c2ccnc(NCCCCc3nnn[nH]3)n2)s1 [6-121, N-(3-(5-(2-((4-(1H-tetrazol-5-yl)butyl)amino)pyrimidin-4-yl)-2-(tert-butyl)thiazol-4-yl)-2-fluorophenyl)-2,6-difluorobenzenesulfonamide]
IC50 (A375 cells; Homo sapiens, A-375, 72 h): 1.27 ± 0.0544 µM
Emax (A375 cells; Homo sapiens): 60%
Papp B→A at 90 min, 10 µM (P-gp): 0.325 ± 0.124 ×10⁻⁶ cm/s

Structure (SMILES): CC(C)(C)c1nc(-c2cccc(NS(=O)(=O)c3ccc(F)cc3C(F)(F)F)c2F)c(-c2ccnc(NCCCCC(=O)O)n2)s1 [6-181, 5-((4-(2-(tert-butyl)-4-(2-fluoro-3-((4-fluoro-2-(trifluoromethyl)phenyl)sulfonamido)phenyl)thiazol-yl)pyrimidin-2-yl)amino)pentanoic acid]
IC50 (A375 cells; Homo sapiens, A-375, 72 h): > 50 µM

Structure (SMILES): CC(C)(C)c1nc(-c2cccc(NS(=O)(=O)c3ccc(F)cc3C(F)(F)F)c2F)c(-c2ccnc(N)n2)s1 [6-166, N-(3-(5-(2-aminopyrimidin-4-yl)-2-(tert-butyl)thiazol-4-yl)-2-fluorophenyl)-4-fluoro-2-(trifluoromethyl)benzenesulfonamide]
IC50 (A375 cells; Homo sapiens, A-375, 72 h): > 3 µM

More lines, main results first:

IC50 (A375 cells; Homo sapiens, A-375, 72 h): > 3 µM
Structure (SMILES): CC(C)(C)c1nc(-c2c(F)ccc(NS(=O)(=O)c3ccc(F)cc3C(F)(F)F)c2F)c(-c2ccnc(N)n2)s1 [6-167, N-(3-(5-(2-aminopyrimidin-4-yl)-2-(tert-butyl)thiazol-4-yl)-2,4-difluorophenyl)-4-fluoro-2-(trifluoromethyl)benzenesulfonamide]

IC50 (A375 cells; Homo sapiens, A-375, 72 h): > 3 µM
Structure (SMILES): CC(C)(C)c1nc(-c2cccc(NS(=O)(=O)c3cc(C(F)(F)F)ccc3C(F)(F)F)c2F)c(-c2ccnc(N)n2)s1 [6-163, N-(3-(5-(2-aminopyrimidin-4-yl)-2-(tert-butyl)thiazol-4-yl)-2-fluorophenyl)-2,5-bis(trifluoromethyl)benzenesulfonamide]

efflux ratio at 90 min, 10 µM (P-gp): 1.18
Structure (SMILES): CC(C)NCC(O)COc1cccc2ccccc12 (stereo not drawn) [Propranolol, reference compound]

IC50 (A375 cells; Homo sapiens, A-375, 72 h): > 1 µM
Papp A→B at 90 min, 10 µM (P-gp): 0.493 ± 0.148 ×10⁻⁶ cm/s
Papp B→A at 90 min, 10 µM (P-gp): 0.626 ± 0.238 ×10⁻⁶ cm/s
efflux ratio at 90 min, 10 µM (P-gp): 1.3 ± 0.38
Structure (SMILES): CC(C)(C)c1nc(-c2cccc(NS(=O)(=O)c3c(F)cccc3F)c2F)c(-c2ccnc(N[C@@H]3CC[C@H](C(=O)O)C3)n2)s1 [6-91, (1S,3R)-3-((4-(2-(tert-butyl)-4-(3-((2,6-difluorophenyl)sulfonamido)-2-fluorophenyl)thiazol-5-yl)pyrimidin-2-yl)amino)cyclopentane-1-carboxylic acid]

IC50 (A375 cells; Homo sapiens, A-375, 72 h): > 50 µM
Papp A→B at 90 min, 10 µM (P-gp): 0.518 ×10⁻⁶ cm/s
Papp B→A at 90 min, 10 µM (P-gp): 0.398 ± 0.149 ×10⁻⁶ cm/s
efflux ratio at 90 min, 10 µM (P-gp): 0.6
Structure (SMILES): CC(C)(C)c1nc(-c2c(F)ccc(NS(=O)(=O)c3cc(C(F)(F)F)ccc3C(F)(F)F)c2F)c(-c2ccnc(NCCCCC(=O)O)n2)s1 [6-150, 5-((4-(4-(3-((2,5-bis(trifluoromethyl)phenyl)sulfonamido)-2,6-difluorophenyl)-2-(tert-butyl)thiazol-5-yl)pyrimidin-2-yl)amino)pentanoic acid]

IC50 (A375 cells; Homo sapiens, A-375, 72 h): 14.7 ± 6.16 µM
Papp B→A at 90 min, 10 µM (P-gp): 1.79 ± 0.064 ×10⁻⁶ cm/s
Structure (SMILES): CC(C)(C)c1nc(-c2c(F)ccc(NS(=O)(=O)c3ccc(F)cc3C(F)(F)F)c2F)c(-c2ccnc(NCCCCC(=O)O)n2)s1 [6-179, 5-((4-(2-(tert-butyl)-4-(2,6-difluoro-3-((4-fluoro-2-(trifluoromethyl)phenyl)sulfonamido)phenyl)thiazol-5-yl)pyrimidin-2-yl)amino)pentanoic acid]

IC50 (A375 cells; Homo sapiens, A-375, 72 h): > 1 µM
Papp A→B at 90 min, 10 µM (P-gp): 1.58 ± 0.335 ×10⁻⁶ cm/s
Papp B→A at 90 min, 10 µM (P-gp): 1.45 ± 0.077 ×10⁻⁶ cm/s
efflux ratio at 90 min, 10 µM (P-gp): 0.984 ± 0.164
Structure (SMILES): CC(C)(C)c1nc(-c2cccc(NS(=O)(=O)c3c(F)cccc3F)c2F)c(-c2ccnc(Nc3ccc(C(=O)O)cc3)n2)s1 [6-77, 4-((4-(2-(tert-butyl)-4-(3-((2,6-difluorophenyl)sulfonamido)-2-fluorophenyl)thiazol-5-yl)pyrimidin-2-yl)amino)benzoic acid]

IC50 (A375 cells; Homo sapiens, A-375, 72 h): 0.558 ± 0.118 µM
Papp B→A at 90 min, 10 µM (P-gp): 1.45 ± 0.172 ×10⁻⁶ cm/s
Structure (SMILES): CC(C)(C)c1nc(-c2cccc(NS(=O)(=O)c3c(F)cccc3F)c2F)c(-c2ccnc(CCCC(=O)O)n2)s1 [6-191, 4-(4-(2-(tert-butyl)-4-(3-((2,6-difluorophenyl)sulfonamido)-2-fluorophenyl)thiazol-5-yl)pyrimidin-2-yl)butanoic acid]
Emax (A375 cells; Homo sapiens): 60%

IC50 (A375 cells; Homo sapiens, A-375, 72 h): 1.75 ± 0.0219 µM
Structure (SMILES): CC(C)(C)c1nc(-c2cccc(NS(=O)(=O)c3c(F)cccc3F)c2F)c(-c2ccnc(CCCCCC(=O)O)n2)s1 [6-193, 6-(4-(2-(tert-butyl)-4-(3-((2,6-difluorophenyl)sulfonamido)-2-fluorophenyl)thiazol-5-yl)pyrimidin-2-yl)hexanoic acid]
Emax (A375 cells; Homo sapiens): 60%
